Data reported in patent publication US20110105544A1, “CARBOXYLIC DERIVATIVES FOR USE IN THE TREATMENT OF CANCER” (priority 2007, published 2011).

Tests used:
[1] = test system: MDA-MB-468 (breast); test: alamarBlue viability assay, MDA-MB-468; type: cell-based; conditions: Homo sapiens, 72 hours
Experimental: (§1) Additionally, the following cancer cell lines were used:
(§2) Cells were grown in a humidified incubator at 37° C. in 5% CO2.
(§3) Cells were plated in 96-well plates at a density of 6000 cells/well in 100 μl medium 24 h before addition of drugs. They were then added in concentrations from 100 μM to 0.45 nM (each concentration in triplicate). To do so, a drugs-dilution plate at twice the screening concentrations was prepared. 72 hours later, alamarBlue (Biosource, Invitrogen) viability assay was performed following manufacturer's protocol. In brief, alamarBlue diluted in media was added to cells to have a 5% solution. Cells were incubated at 37° C., 3 hours and at room temperature, 30 min. Cells with no drug and, cells with no drug and lysed with triton X-100 were used as controls. Fluorescence was monitored at 530 nm excitation and 590 nm emission wavelengths. Results were quantified using Infinite F200 Microplate Reader (Tecan Group, Ltd.). EC50 were calculated as the dose of drugs required to inhibit cell growth by 50%, with Origin 7.0 computer program.

[2] = test system: MDA-MB-435P (breast); test: alamarBlue viability assay, MDA-MB-435P; type: cell-based; conditions: 72 hours
Experimental: as §1, §2, §3

[3] = test system: PC3 (prostate); test: alamarBlue viability assay, PC3; type: cell-based; conditions: 72 hours
Experimental: as §1, §2
as §3, with “They were then added in concentrations from 100 μM to 0.45 nM (each concentration in triplicate).” left out

[4] = test system: human colon cancer cell line HCT116; test: alamarBlue viability assay, HCT116; type: cell-based; conditions: HCT-116, 72 hours, dose required to inhibit cell growth by 50%
Experimental: (§4) The human colon cancer cell line HCT116 and the human breast cancer cell line MCF-7 were from the American Type Culture Collection (ATCC; CCL-247 and HTB-22, respectively).
(§5) The HCT116 cell line was maintained in DMEM GlutaMAX (Invitrogen) supplemented with 10% fetal calf serum and the MCF7 cell line was maintained in RPMI1640 GlutaMAX (Invitrogen) containing 1 mM sodium piruvate and 10% fetal calf serum.
as §2
as §3, with “They were then added in concentrations from 100 μM to 0.45 nM (each concentration in triplicate).” left out

[5] = test system: human breast cancer cell line MCF-7; test: alamarBlue viability assay, MCF-7; type: cell-based; conditions: MCF7, 72 hours, dose required to inhibit cell growth by 50%
Experimental: as §4, §5, §2
as §3, with “They were then added in concentrations from 100 μM to 0.45 nM (each concentration in triplicate).” left out

[6] = test system: K562 (lymphoma); test: alamarBlue viability assay, K562; type: cell-based; conditions: Homo sapiens, 72 hours
Experimental: as §1, §2
as §3, with “They were then added in concentrations from 100 μM to 0.45 nM (each concentration in triplicate).” left out

[7] = molecular target: T1, human recombinant HDAC 8 (Homo sapiens, UniProt Q9BY41); test: HDAC inhibition assay (Fluor de Lys), HDAC8; type: biochemical; conditions: inhibitor-protein incubation 0 hours, reaction 3 hours, 37° C.
T1 construct: purchased BPS Bioscience 50008
T1 sequence (Q9BY41 1-377): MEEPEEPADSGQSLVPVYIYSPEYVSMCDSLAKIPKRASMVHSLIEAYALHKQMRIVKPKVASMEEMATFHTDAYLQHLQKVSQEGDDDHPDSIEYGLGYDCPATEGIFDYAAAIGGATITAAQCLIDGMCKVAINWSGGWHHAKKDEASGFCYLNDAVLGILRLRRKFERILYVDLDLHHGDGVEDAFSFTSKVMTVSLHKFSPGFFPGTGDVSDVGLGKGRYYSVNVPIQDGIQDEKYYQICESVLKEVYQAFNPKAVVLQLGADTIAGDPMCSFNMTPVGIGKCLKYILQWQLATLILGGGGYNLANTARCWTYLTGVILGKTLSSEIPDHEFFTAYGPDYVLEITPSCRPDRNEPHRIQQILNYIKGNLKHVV
Experimental: (§6) All assays were carried out in the assay buffer: 50 mM Tris/Cl, pH 8.0, 137 mM NaCl, 2.7 mM KCl, 1 mM MgCl2).
(§7) Reactions were carried out in a 96-wells microplate (Corning 96 well Flat Bottom Non-binding surface (black) ref. 3651).
(§8) Potential inhibitors were added after five fold serial dilutions in DMSO. Final DMSO concentration in the assay microplate was kept at 2%.
(§9) Afterwards, human recombinant HDAC1, HDAC 2 or HDAC 8 were added up to […] respectively in assay buffer. When necessary, the mixture was incubated at room temperature prior the addition of substrate.
(§10) Total reaction volume of 50 μl. Human recombinant HDACs could be acquired from commercial sources (HDAC1: ref. #50001, BPS Bioscience™; HDAC 2: ref. #50002, BPS Bioscience™; HDAC 8: ref. #50008, BPS Bioscience™).
(§11) Reactions were stopped with 50 μl Developer (KI-105 Fluor de Lys™, BIOMOL®) with 2 μmol/L trichostatin A (TSA, final concentration 1 μmol/L). After 20 minutes at 37° C., fluorescence (excitation 360 nm, emission 460 nm) was measured using an Infinite F200 fluorimeter (Tecan). Background was determined in reactions using substrate in the absence of enzyme.
(§12) IC50 values are defined as the compound concentration at which the deacetylase activity is 50% inhibited. In these assays the following grading was used (I: IC50≦10 μM; II: 10 μM<IC50≦100 μM; III: 100 μM<IC50≦1 mM) The results obtained are summarized in Table 4.

[8] = molecular target: T2, human recombinant HDAC1 (Homo sapiens, UniProt Q13547); test: HDAC inhibition assay (Fluor de Lys), HDAC1; type: biochemical; conditions: inhibitor-protein incubation 0 hours, reaction 3 hours, 25° C.
T2 construct: purchased BPS Bioscience 50001
Experimental: as §6, §7, §8, §9, §10, §11
(§13) IC50 values are defined as the compound concentration at which the deacetylase activity is 50% inhibited. […]

[9] = molecular target: T3, human recombinant HDAC 2 (Homo sapiens, UniProt Q92769); test: HDAC inhibition assay (Fluor de Lys), HDAC2; type: biochemical; conditions: inhibitor-protein incubation 2 hours, reaction 1 h 30 min, 37° C.
T3 construct: purchased BPS Bioscience 50002
Experimental: as §6, §7, §8, §9, §10, §11, §12

[10] = test system: HDACs; test: HDAC inhibition assays, isoform not specified; type: biochemical, human; conditions: result in words
Experimental: as §6, §7, §8, §9, §10, §11, §13

[11] = test system: SK-mel-98 (melanoma); test: alamarBlue viability assay, SK-mel-98; type: cell-based; conditions: 72 hours
Experimental: as §1, §2, §3

[12] = test system: U87 (glioblastoma); test: alamarBlue viability assay, U87; type: cell-based; conditions: 72 hours
Experimental: as §1, §2, §3

[13] = test system: NP-9 (pancreas); test: alamarBlue viability assay, NP-9; type: cell-based; conditions: 72 hours
Experimental: The NP-9 cell line from pancreas, was provided by Dr. R. Alemany from Translational Research Laboratory (Institut Catala d'Oncologia). (cf., Cascallò, M. et al., “Ras-dependent Oncolysis with an Adenovirus VAI mutant”, Cancer Research, 2003, 63, 5544-5550). This cells was maintained in DMEM:F12 (Invitrogen) supplemented with 10% fetal calf serum (Invitrogen), L-glutamine […] (Invitrogen), pyruvate […] (Invitrogen).
as §2
as §3, with “EC50 were calculated as the dose of drugs required to inhibit cell growth by 50%, with Origin 7.0 computer program.” left out

[14] = test system: T98G (glioblastoma); test: alamarBlue viability assay, T98G; type: cell-based; conditions: Homo sapiens, 72 hours
Experimental: as §1, §2, §3

[15] = test system: Hep3B (hepatocarcinoma); test: alamarBlue viability assay, Hep3B; type: cell-based; conditions: Homo sapiens, 72 hours
Experimental: as §1, §2
as §3, with “They were then added in concentrations from 100 μM to 0.45 nM (each concentration in triplicate).” left out

[16] = test system: A549 (lung); test: alamarBlue viability assay, A549; type: cell-based; conditions: Homo sapiens, 72 hours
Experimental: as §1, §2, §3

[17] = test system: HepG2 (hepatocarcinoma); test: alamarBlue viability assay, HepG2; type: cell-based; conditions: Homo sapiens, 72 hours
Experimental: as §1, §2, §3

T3 sequence (Q92769 whole entry): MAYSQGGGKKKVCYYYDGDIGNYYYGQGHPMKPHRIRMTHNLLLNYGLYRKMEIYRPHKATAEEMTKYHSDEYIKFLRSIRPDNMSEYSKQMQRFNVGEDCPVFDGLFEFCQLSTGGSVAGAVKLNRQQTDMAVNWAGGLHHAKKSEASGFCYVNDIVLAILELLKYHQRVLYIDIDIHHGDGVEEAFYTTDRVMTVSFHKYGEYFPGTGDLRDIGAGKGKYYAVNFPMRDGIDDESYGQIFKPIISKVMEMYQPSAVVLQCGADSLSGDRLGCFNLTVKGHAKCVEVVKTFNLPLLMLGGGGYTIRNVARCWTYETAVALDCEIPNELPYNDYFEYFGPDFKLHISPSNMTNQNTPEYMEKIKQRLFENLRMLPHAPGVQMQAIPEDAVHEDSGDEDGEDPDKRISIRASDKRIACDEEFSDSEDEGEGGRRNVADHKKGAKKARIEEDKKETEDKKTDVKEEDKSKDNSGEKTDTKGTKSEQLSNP
T2 sequence (Q13547 whole entry): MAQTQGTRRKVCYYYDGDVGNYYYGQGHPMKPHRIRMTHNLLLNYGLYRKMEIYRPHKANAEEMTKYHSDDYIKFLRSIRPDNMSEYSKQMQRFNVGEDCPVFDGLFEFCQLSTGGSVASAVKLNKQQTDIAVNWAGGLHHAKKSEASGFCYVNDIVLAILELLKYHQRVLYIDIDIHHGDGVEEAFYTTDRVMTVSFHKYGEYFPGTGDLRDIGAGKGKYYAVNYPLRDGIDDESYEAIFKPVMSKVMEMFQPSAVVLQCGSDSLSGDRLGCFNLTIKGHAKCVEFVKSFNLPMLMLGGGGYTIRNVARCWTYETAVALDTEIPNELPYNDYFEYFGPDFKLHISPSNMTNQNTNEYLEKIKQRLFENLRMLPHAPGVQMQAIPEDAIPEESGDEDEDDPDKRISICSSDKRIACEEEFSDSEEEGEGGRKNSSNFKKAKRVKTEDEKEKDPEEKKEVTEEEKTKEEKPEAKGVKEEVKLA

## O=C(O)C(CCc1ccccc1)Cc1ccccc1 (stereo not shown) [Example 9, 2-Benzyl-4-phenylbutanoic acid]
[1]
  EC50: 364 µM
[2]
  EC50: 242 µM
[3]
  EC50: 364 µM
[4]
  EC50: 636 µM
[5]
  EC50: 1060 µM
[6]
  EC50: 472 µM
[7]
  IC50: 100 to 1000 µM

## O=C(O)C(CCCc1ccccc1)CCc1ccccc1 (stereo not shown) [Example 11, 5-Phenyl-2-(2-phenylethyl)pentanoic acid]
[2]
  EC50: 253 µM
[8]
  IC50: 100 to 1000 µM
[4]
  EC50: 177 µM
[5]
  EC50: 268 µM
[9]
  IC50: 100 to 1000 µM
[7]
  IC50: 10 to 100 µM

## CNS(=O)(=O)c1ccc(CC(CCc2ccccc2)C(=O)O)cc1 (stereo not shown) [Example 12, 2-{4-[(methylamino)sulfonyl]benzyl}-4-phenylbutanoic acid]
[4]
  EC50: 5000 µM
[5]
  EC50: 5000 µM
[10]
  inhibition of the target of these compounds (i.e. HDACs): clear inhibition
[7]
  IC50: 100 to 1000 µM

## Cc1ccc(NS(=O)(=O)c2cccc(CCCC(CCc3ccccc3)C(=O)O)c2)cc1 (stereo not shown) [Example 36]
[11]
  EC50: 170 µM
[1]
  EC50: 55.4 µM
[12]
  EC50: 105 µM
[13]
  EC50: 41 µM
[2]
  EC50: 125 µM
[14]
  EC50: 118 µM
[3]
  EC50: 168 µM
[4]
  EC50: 98 µM
[6]
  EC50: 157 µM
[15]
  EC50: 99.7 µM
[16]
  EC50: 104 µM
[9]
  IC50: 10 to 100 µM
[17]
  EC50: 140 µM
[7]
  IC50: 10 to 100 µM

## CNS(=O)(=O)c1cccc(CCCC(CCc2ccccc2)C(=O)O)c1 (stereo not shown) [Example 41, 5-(3-[(Methylamino)sulfonyl]phenyl)-2-(2-phenylethyl)pentanoic acid]
[8]
  IC50: 100 to 1000 µM
[4]
  EC50: 644 µM
[9]
  IC50: 100 to 1000 µM
[7]
  IC50: 10 to 100 µM

## COc1ccc(NS(=O)(=O)c2cccc(CCCC(CCc3ccccc3)C(=O)O)c2)cc1OC (stereo not shown) [Example 43, 5-(3-{[(3,4-dimethoxyphenyl)amino]sulfonyl}phenyl)-2-(2-phenylethyl)pentanoic acid]
[1]
  EC50: 87 µM
[2]
  EC50: 210 µM
[3]
  EC50: 336 µM
[4]
  EC50: 75 µM
[6]
  EC50: 2.55 µM
[9]
  IC50: 100 to 1000 µM
[7]
  IC50: 10 to 100 µM

## CCc1ccc(CCC(CCCc2ccc(S(=O)(=O)Nc3ccccc3)cc2)C(=O)O)cc1 (stereo not shown) [Example 46, 5-[4-(Anilinosulfonyl)phenyl]-2-[2-(4-ethylphenyl)ethyl]pentanoic acid]
[11]
  EC50: 78.3 µM
[1]
  EC50: 99.8 µM
[12]
  EC50: 43 µM
[13]
  EC50: 102 µM
[2]
  EC50: 52 µM
[14]
  EC50: 118 µM
[3]
  EC50: 55.6 µM
[4]
  EC50: 54 µM
[15]
  EC50: 107 µM
[16]
  EC50: 62.3 µM
[9]
  IC50: 10 to 100 µM
[17]
  EC50: 103 µM
[7]
  IC50: ≤ 10 µM
